Reference: patent US20240082273A1, “NEUROKININ INHIBITORS SUCH AS APREPITANT FOR TREATING NON SMALL CELL LUNG CARCINOMA OR BREAST CANCER WITHOUT MUTATIONS” (priority 2020, published 2024)

Columns and labels:
[1] = Xenograft mouse safety model (body weight, autopsy); type: in vivo, C57BL/6J mice
Description: Fosaprepitant dimeglumine salt (CAS No 265121-04-8) was purchased from Selleck Chemicals and administered intraperitoneally at 30, 60 and 100 mg/kg dose, once a day. Fosaprepitant is a pro-drug available for parenteral administration that in the body, once administered, becomes aprepitant.
3LL cells (0.6×10^6 per mouse) or B16F10 cells (1×10^6 per mouse) were subcutaneously injected into the right flank of C57BL/6J mice (Charles River) with matrigel (Matrigel Membrane Matrix, Corning) at 50% v/v. Tumour growth was evaluated every 2/3 days. Animal vital parameters were monitored daily. When the tumours reached an average volume of 100-150 mm ^3, mice were randomized into cohorts of 6 animals each and treatments were administered for 7-9 days. Groups and regimens for each experiment are described in Table 1. Animals of the control group were dosed with equal volume of vehicle. Animals were euthanized according to institutional guidelines and tumour samples were excised. Tumours were snap-frozen in OCT medium (Sakura Tissue Tek) or fixed in PFA and embedded in paraffin. Several internal organs were also excised and fixed in PFA for future studies.

[2] = system: lung cancer cell lines with molecular profile EGFR−/ALK−/ROS1− (A549, H358, H441, H460, H520); test: MTT proliferation, NSCLC cell lines with EGFR−/ALK−/ROS1− profile; type: cell-based, human; conditions: for Mean proliferation: 48 hours
Source text: (§1) EGFR, ALK and ROS1 are key molecular factors that may be used to determine pathological classification, prognosis, therapeutics and behaviour in patients with lung cancer. EGFR, ALK and ROS1 are biomarkers routinely analysed in the clinical practice of the management of patients with NSCLC. NSCLC with molecular profile EGFR-/ALK-/ROS1- presents a better response to treatment with the NK1 inhibitor aprepitant, compared to lung cancer with different profiles (in particular, EGFR+/ALK-/ROS1- and EGFR-/ALK+/ROS1-, in which EGFR and ALK respectively contain mutations relative to their wild type gene). Commercial lines of lung cancer were used as shown in Table 2 together with their molecular profile. The molecular profile of the cancer cell lines was determined by sequencing and can be consulted in the Cancer Cell Line Encyclopaedia database of public access available at the url: https://portals.broadinstitute.org/ccle All cells were cultured in wells under vendor-recommended conditions and exposed to different concentrations of aprepitant for 48 hours. In each case a group of wells of cells were used to which no treatment was applied and which were considered as controls. At 48 hours the number of cells was measured. Eight cell lines of human were used for the study of NK1 inhibitors (Table 3). All of them were maintained in culture in their respective culture media (Gibco,Thermo Fisher Scientific) supplemented with 10% foetal bovine serum (FBS) (Gibco, Thermo Fisher Scientific), 2 mM L-Glutamine (Gln) (Sigma-Aldrich, Merk), and […] and […] Gibco, Thermo Fisher Scientific) in a humidified incubator at 37° C. and 5% CO2. Cell culture media used are Dulbecco's Modified Eagle Medium (DMEM), and RPMI Medium 1640 (RPMI-1640). To measure cell viability, the cytotoxicity of drugs in culture was evaluated using the 3-(4,5-Dimethyl-2-thiazolyl)-2,5-diphenyl-2H-tetrazolium bromide (MTT) reduction assay. This assay assesses cell viability through the indirect measurement of the activity of reductases that convert yellow soluble MTT into purple insoluble formazan salts. As MTT can only be reduced when these enzymes are active, the reaction is used as an indicator of the cell metabolic competence and, therefore, of viability. A variable number of cells (depending on the cell line) were seeded in 96 multi-well plates and grown during 24 hours. The following day, the culture medium was aspirated and fresh culture medium with the drug dissolved was added to the wells. After 24 hours or 48 hours cell viability was measurement by adding 10 μl of a 5 mg/ml MTT solution (M5655; Sigma-Aldrich) and 100 μl of HCl 0.01M-SDS 10% solution 4 hours later. After 24 hours, the absorbance was measured at 595 nm, using a multi-well plate reader (iMark, Bio-rad). Each condition was tested 5 times, obtaining 5 values of absorbance. All sample measurements were corrected using the blank (culture medium without cells) mean absorbance value, and normalized to positive control to determinate relative cell viability for each condition at 24 and 48 hours.

[3] = system: lung cancer cell line with molecular profile EGFR+/ALK−/ROS1− (HCC4006); test: MTT proliferation, NSCLC cell line with EGFR+/ALK−/ROS1− profile; type: cell-based, human; conditions: 48 hours
Source text: as §1

[4] = system: breast cancer cell lines ER+/PR+/HER2− (MCF7, T47D); test: MTT proliferation, breast cancer cell lines ER+/PR+/HER2−; type: cell-based, human; conditions: 48 hours
Description: All cells were cultured in wells under vendor-recommended conditions and exposed to different concentrations of aprepitant for 48 hours. In each case a group of wells of cells were used to which no treatment was applied and which were considered as controls. At 48 hours the number of cells was measured. To measure cell viability, the cytotoxicity of drugs in culture was evaluated using the 3-(4,5-Dimethyl-2-thiazolyl)-2,5-diphenyl-2H-tetrazolium bromide (MTT) reduction assay. This assay assesses cell viability through the indirect measurement of the activity of reductases that convert yellow soluble MTT into purple insoluble formazan salts. As MTT can only be reduced when these enzymes are active, the reaction is used as an indicator of the cell metabolic competence and, therefore, of viability. A variable number of cells (depending on the cell line) were seeded in 96 multi-well plates and grown during 24 hours. The following day, the culture medium was aspirated and fresh culture medium with the drug dissolved was added to the wells. After 24 hours or 48 hours cell viability was measurement by adding 10 μl of a 5 mg/ml MTT solution (M5655; Sigma-Aldrich) and 100 μl of HCl 0.01M-SDS 10% solution 4 hours later. After 24 hours, the absorbance was measured at 595 nm, using a multi-well plate reader (iMark, Bio-rad). Each condition was tested 5 times, obtaining 5 values of absorbance. All sample measurements were corrected using the blank (culture medium without cells) mean absorbance value, and normalized to positive control to determinate relative cell viability for each condition at 24 and 48 hours.

In the case of `C[C@@H](O[C@H]1OCCN(Cc2nc(=O)[nH][nH]2)[C@H]1c1ccc(F)cc1)c1cc(C(F)(F)F)cc(C(F)(F)F)c1` [Aprepitant], the “autopsy, organs explored microscopically: signs of toxicity” value ([1]; all animals, 30, 60 and 100 mg/kg/day) is reported as “no significant signs of toxicity”, the “safety (body weight, histological study of the main organs)” value ([1]; mouse, in vivo, 100 mg/kg/day) is reported as “safe” and the inhibition at 5 µM ([2]; Homo sapiens, concentration of 5 μM, in most cell lines (FIG. 3)) is reported as about 20%. The inhibition at 20 µM ([2]; Homo sapiens, concentration of 20 μM (FIG. 3), read-out: growth inhibition) was 60%, the Mean proliferation ([2]; aprepitant 1 μM) was 98.09 and the Mean proliferation ([2]; aprepitant 3 μM) was 94.71. The Mean proliferation ([2]; aprepitant 5 μM) was 72.82, the Mean proliferation ([2]; aprepitant 10 μM) was 59.95 and the Mean proliferation ([2]; aprepitant 20 μM) was 42.37. It also gave a Mean proliferation ([2]; aprepitant 30 μM) of 30.66, a Mean proliferation ([2]; aprepitant 40 μM) of 18.72 and a Mean proliferation ([2]; aprepitant 50 μM) of 4.05. The Mean proliferation ([2]; aprepitant 60 μM) was 4.40, the “proliferation compared to control” value ([2]; concentration of 5 μM, in most cell lines (FIG. 3)) was 80% and the “response to treatment versus EGFR+/ALK−/ROS1− and EGFR−/ALK+/ROS1− profiles” value ([2]; in vitro, Table 4 and FIG. 2) was “clearly improved response”. It also gave a Mean proliferation ([3]; aprepitant 1 μM) of 101.53, a Mean proliferation ([3]; aprepitant 3 μM) of 99.73 and a Mean proliferation ([3]; aprepitant 5 μM) of 96.4. It also gave a Mean proliferation ([3]; aprepitant 10 μM) of 89.14, a Mean proliferation ([3]; aprepitant 20 μM) of 69.95 and a Mean proliferation ([3]; aprepitant 30 μM) of 54.9. The Mean proliferation ([3]; aprepitant 40 μM) was 38.12, the Mean proliferation ([3]; aprepitant 50 μM) was 24.82 and the Mean proliferation ([3]; aprepitant 60 μM) was 14.95. For the same compound, the Mean proliferation ([4]; aprepitant 0.3 μM) was 102.47, the Mean proliferation ([4]; aprepitant 1 μM) was 99.16 and the Mean proliferation ([4]; aprepitant 3 μM) was 106.96. For the same compound, the Mean proliferation ([4]; aprepitant 10 μM) was 81.55, the Mean proliferation ([4]; aprepitant 20 μM) was 67.98 and the Mean proliferation ([4]; aprepitant 30 μM) was 54.13. It also gave a Mean proliferation ([4]; aprepitant 40 μM) of 35.22, a Mean proliferation ([4]; aprepitant 50 μM) of 21.79 and a Mean proliferation ([4]; aprepitant 60 μM) of 11.7.
